The values that follow are results of earlier work, collected in patent US20170020817A1, “SOLID NANOPARTICLE FORMULATION OF MICROTUBLE INHIBITORS WITH REDUCED OSTWALD REPENING FOR ORAL ADMINISTRATION” (Luminus Biosciences, Inc., priority 2013, published 2017).

Series [1] deals with microtubules. To be noted: most test systems.

As to `C/C(=C\c1csc(C)n1)[C@@H]1C[C@@H]2O[C@]2(C)CCC[C@H](C)[C@H](O)[C@@H](C)C(=O)C(C)(C)[C@@H](O)CC(=O)N1` [Ixabepilone], the solubility in water entry is “about 3.5 mg/L”.

`CO[C@H]1C(=O)[C@]2(C)[C@@H](OC)C[C@H]3OC[C@@]3(OC(C)=O)[C@H]2[C@H](OC(=O)c2ccccc2)[C@]2(O)C[C@H](OC(=O)[C@H](O)[C@@H](NC(=O)OC(C)(C)C)c3ccccc3)C(C)=C1C2(C)C` [cabazitaxel]: the solubility in water entry was “about 8 mg/L”.

With `CC(=O)O[C@@]12CO[C@@H]1C[C@H](O)[C@@]1(C)C(=O)[C@H](O)C3=C(C)[C@@H](OC(=O)[C@H](O)[C@@H](NC(=O)OC(C)(C)C)c4ccccc4)C[C@@](O)([C@@H](OC(=O)c4ccccc4)[C@H]21)C3(C)C` [docetaxel], the solubility in water result is recorded as “about 14 mg/L”.

`C/C(=C\c1csc(C)n1)[C@@H]1C[C@@H]2O[C@]2(C)CCC[C@H](C)[C@H](O)[C@@H](C)C(=O)C(C)(C)[C@@H](O)CC(=O)O1` [epothilone B]: the “effectiveness relative to epothilone A” value in series [1] is reported as “approximately ten-time more effective”.

For the compound `CC(=O)O[C@H]1C(=O)[C@@]2(C)[C@H]([C@H](OC(=O)c3ccccc3)[C@]3(O)C[C@H](OC(=O)[C@H](O)[C@@H](NC(=O)c4ccccc4)c4ccccc4)C(C)=C1C3(C)C)[C@]1(OC(C)=O)CO[C@@H]1C[C@@H]2O` [paclitaxel], the solubility in water entry is “about 0.4 mg/L”.
